From patent publication US8461289B2, “Bioresorbable polymers synthesized from monomer analogs of natural metabolites” (Rutgers, The State University of New Jersey, priority 2006, dated 2013)
In brackets after ≈: the same amount, converted by molar mass. Read-outs that look alike come from different tables or passages of the source.

Test: Determination of solubility of monomers in PBS (HPLC of filtrate against calibration curve)
Assay type: physicochemical
Details: monomer in PBS (pH 7.4), filtered; for solubility at 2 h: aqueous buffer, thermodynamic from solid
Procedure: About 30 mg of the monomer and 2 mL of PBS (pH 7.4) were added to a 2 dram vial. The vial was agitated on a vortex mixer for 2 h. If all the solid dissolved, more solid was added and agitation was continued. The mixture was filtered using a syringe filter to remove undissolved monomer. The clear filtrate was analyzed by HPLC by injecting 5 microliter of the filtrate. The area of the peak obtained was measured. A calibration curve was obtained by injecting known concentration of the monomer in methanol and plotting concentration against the area of the peaks obtained. Using this calibration curve the solubility of the monomer in PBS at ambient temperature was determined.
To determine the solubility at 37° C., the vials were placed in an incubator at 37° C. for 2 h. The mixture was then quickly filtered using syringe filter and then diluted 2× with PBS to prevent precipitation of the monomer. The solubility is determined using procedures similar to that used at room temperature solubility.

[1] = ambient temperature / 25° C., agitated 2 h

Structure (SMILES) | Solubility, mg/mL, 25° C. [1] [mg/mL] | Solubility, mg/mL, 37° C. (incubator at 37° C. for 2 h, diluted 2× with PBS) [mg/mL] | solubility at 2 h (ambient temperature / 25° C., agitated 2 h, read-out: Solubility, mg/mL, 25° C.) [mg/mL] | solubility at 2 h (incubator at 37° C. for 2 h, diluted 2× with PBS, read-out: Solubility, mg/mL, 37° C.) [mg/mL]
CCOC(=O)C(Cc1c[nH]c2ccc(O)cc12)NC(=O)CCc1ccc(O)cc1 (stereo not shown) [DAT-5-hydroxytryptophan ethyl ester, DAT-5-Hydroxytryptophan Ethyl Ester] | 0.15 (≈ 0.378 mM) | 0.43 (≈ 1.08 mM) | – | –
CCOC(=O)C(Cc1ccc(Oc2ccc(O)cc2)cc1)NC(=O)CCc1ccc(O)cc1 (stereo not shown) [DAT-Thyronine ethyl ester] | <0.05 | – | – | –
CCOC(=O)[C@H](CO)NC(=O)CCc1ccc(O)cc1 [DAT-serine ethyl ester, Desaminotyrosyl Serine Ethyl Ester] | – | – | 7.7 (≈ 27.4 mM) | 14.1 (≈ 50.2 mM)
CCOC(=O)C1CC(O)CN1C(=O)CCc1ccc(O)cc1 (stereo not drawn) [DAT-trans-Hydroxyproline ethyl ester, DAT-Hydroxyproline Ethyl Ester] | 12 (≈ 39 mM) | – | – | –
CCOC(=O)[C@H](Cc1ccc(O)cc1)NC(=O)CCc1ccc(O)cc1 [DAT-tyrosine ethyl ester (DTE), DAT-tyrosine ethyl ester, reference compound] | 0.74 (≈ 2.07 mM) | – | – | –
